This passage reports inhibition, Ki and Activity results from ChEMBL document CHEMBL3217725, “Peptidomimetic nitriles as selective inhibitors for the malarial cysteine protease falcipain-2” (Medchemcomm, 2011).

SMILES strings stand for the structures. pKi: −log10 of the molar value. The source made the active and inactive calls. No cut-off for these calls is given here. Where a SMILES comes first, the peptide text is derived from it. [ ]: non-standard residue; d: D form. The star is where a group is joined. Ac6c = NC1(C(=O)O)CCCCC1; Cbz = O=C(OCc1ccccc1)* A value given as a limit tells only on which side of the number the result lay.

Test [1] has as its target T1, Cathepsin B (Homo sapiens, UniProt P07858). The test can be described thus: Inhibition of human cathepsin B at 20 uM relative to control.
For the next test, the system named is Plasmodium falciparum. The test can be described thus: Inhibition of Plasmodium falciparum recombinant falcipain 2 using Cbz-Leu-Arg-AMC as substrate at 20 uM after 10 mins by fluorescence spectrophotometric analysis relative to control.
In test [2] the target is T2, Procathepsin L (Homo sapiens, UniProt P07711). Briefly: Inhibition of human cathepsin L at 20 uM relative to control.
Target sequence in this assay (P07711 114-333 limits assumed): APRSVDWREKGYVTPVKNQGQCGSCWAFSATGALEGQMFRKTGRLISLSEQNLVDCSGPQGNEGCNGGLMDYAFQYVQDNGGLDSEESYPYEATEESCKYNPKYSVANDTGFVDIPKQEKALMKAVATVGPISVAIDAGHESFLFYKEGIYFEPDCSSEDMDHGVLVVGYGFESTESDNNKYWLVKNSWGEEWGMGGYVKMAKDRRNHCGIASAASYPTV
A short description of test [3]: Inhibition of Plasmodium falciparum recombinant falcipain 2 using Cbz-Leu-Arg-AMC as substrate after 10 mins by fluorescence spectrophotometric analysis.
The species entered for the next test is Homo sapiens. The test can be described thus: Inhibition of human alpha-chymotrypsin using Suc-Leu-Tyr-AMC as substrate assessed as residual activity after 10 mins by Dixon plot analysis.
Test [4] addresses T2, Procathepsin L. The test can be described thus: Inhibition of human cathepsin L.
Target sequence in this assay (P07711 whole entry): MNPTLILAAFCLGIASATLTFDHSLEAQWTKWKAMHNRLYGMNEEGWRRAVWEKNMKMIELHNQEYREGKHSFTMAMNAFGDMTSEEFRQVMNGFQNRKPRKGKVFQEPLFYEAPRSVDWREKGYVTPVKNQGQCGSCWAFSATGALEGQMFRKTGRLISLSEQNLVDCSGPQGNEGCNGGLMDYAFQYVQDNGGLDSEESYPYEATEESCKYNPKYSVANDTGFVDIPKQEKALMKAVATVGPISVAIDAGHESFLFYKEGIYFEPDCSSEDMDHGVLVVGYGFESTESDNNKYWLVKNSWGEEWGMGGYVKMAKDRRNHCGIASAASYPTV
Test [5] deals with T1, Cathepsin B. Briefly: Inhibition of human cathepsin B.

One may read the inhibition as the relative decrease from the control value, in per cent. The term pKi denotes −log10 of the Ki, conventionally taken in molar units. For the compound `N#CCNC(=O)C1(NC(=O)C2CCCC2)CCCCC1`, the inhibition on Cathepsin B [1], with Plasmodium falciparum and against Procathepsin L [2] was less than 35% throughout. In addition, the negative-log Ki (pKi) in test [3] was 5.12. Further, the outcome in the test filed under Homo sapiens was inactive.
On to `N#CCNC(=O)C1(NC(=O)CCc2cccs2)CCCCC1`, for which the inhibition against Cathepsin B [1], in the test on Plasmodium falciparum and on Procathepsin L [2] was less than 35% in each case. Moreover, the pKi in test [3] is 5.06. Moreover, the result in the test filed under Homo sapiens was inactive.
For `N#CCNC(=O)C1(NC(=O)CCc2cccnc2)CCCCC1`, the inhibition at Cathepsin B [1], with Plasmodium falciparum and at Procathepsin L [2] was less than 35% each time. Further, the pKi in test [3] is 5.03. In the test listed under Homo sapiens, the result was inactive.
As for `COc1ccc(CCC(=O)NC2(C(=O)NCC#N)CCCCC2)cc1`, the inhibition at Cathepsin B [1], with Plasmodium falciparum and at Procathepsin L [2] was less than 35% each time. In addition, the pKi in test [3] is 5.05. Further, in the test listed under Homo sapiens, the result was inactive.
Consider `N#CCNC(=O)C1(NC(=O)CCc2ccco2)CCCCC1`, for which the inhibition on Cathepsin B [1], in the test with Plasmodium falciparum and against Procathepsin L [2] was less than 35% in each case. Moreover, the negative-log Ki (pKi) in test [3] was 4.76. In addition, the result in the test filed under Homo sapiens was inactive.
`CC(C)(NC(=O)OCc1ccccc1)C(=O)NCC#N`: the inhibition against Cathepsin B [1], in the test on Plasmodium falciparum and at Procathepsin L [2] was less than 35% in each case. For the same compound, the outcome in the test listed under Homo sapiens was inactive.
With `COc1ccc(CCC(=O)NC2(C(=O)NCC#N)CCCCC2)cc1OC`, the inhibition at Cathepsin B [1], in the test on Plasmodium falciparum and against Procathepsin L [2] was less than 35% in each case. Further, in test [3], the pKi was 5.14. Besides, the outcome in the test listed under Homo sapiens was inactive.
With `N#C[C@@H]1CCCN1C(=O)C1(NC(=O)OCc2ccccc2)CCCCC1`, the inhibition against Cathepsin B [1], in the test on Plasmodium falciparum and against Procathepsin L [2] was less than 35% each time. In addition, in the test listed under Homo sapiens, the outcome was inactive.
As for `O=CCNC(=O)C1(NC(=O)OCc2ccccc2)CCCCC1` (Cbz-[Ac6c]-Gly-aldehyde), the inhibition against Cathepsin B [1], in the test on Plasmodium falciparum and at Procathepsin L [2] was less than 35% each time. Further, the pKi at Procathepsin L [4] is 6.09; in test [3], 7.19; at Cathepsin B [5], 5.87. Further, in the test listed under Homo sapiens, the outcome was inactive.
As to `N#CCNC(=O)C1(NC(=O)[C@H]2C[C@@H]2c2ccccc2)CCCCC1` (racemic), the inhibition on Cathepsin B [1], in the test on Plasmodium falciparum and against Procathepsin L [2] was less than 35% in each case. For the same compound, the pKi was 4.88 on Procathepsin L [4], 5.68 in test [3] and 5.30 on Cathepsin B [5]. Besides, the result in the test listed under Homo sapiens was inactive.
Take `N#CCNC(=O)C1(NC(=O)OCc2ccccc2)CCCCC1`: the inhibition at Cathepsin B [1], in the test with Plasmodium falciparum and against Procathepsin L [2] was less than 35% in each case. In addition, the pKi at Procathepsin L [4] is 4.58; in test [3] it was 5.92. For the same compound, in the test listed under Homo sapiens, the result was inactive.
As for `N#CCNC(=O)C1(NC(=O)CCC2CCCC2)CCCCC1`, the inhibition on Cathepsin B [1], with Plasmodium falciparum and on Procathepsin L [2] was less than 35% in each case. Further, the pKi at Procathepsin L [4] was 4.53; in test [3] it was 5.09; on Cathepsin B [5], 4.60. For the same compound, the result in the test filed under Homo sapiens was inactive.
`COc1ccccc1CCC(=O)NC1(C(=O)NCC#N)CCCCC1`: the inhibition against Cathepsin B [1], with Plasmodium falciparum and against Procathepsin L [2] was less than 35% each time. Besides, the pKi was 4.60 on Procathepsin L [4] and 5.28 in test [3]. Besides, the result in the test listed under Homo sapiens was inactive.
